Measured values reported in patent US9321795B2, “Use of hydroxycinnamaldehyde glycoside derivatives for treating glomerulonephritis” (National Defense Medical Center, priority 2014, dated 2016).

Columns and labels:
MyD88 = assay: Reverse-transcription PCR, MyD88 mRNA; type: in vivo, mouse; settings: LPS induced GN mice, i.p. daily 30 mg/ml, 7 weeks, semi-quantitated, FIG. 6
Method: (§1) Experiments were performed on 8-week-old female C57BL/6 mice. The mice were separated into 3 groups at 8-weeks old. One of the groups were injected intravenously with normal saline to be used as normal controls, where the pathological control group and the GN disease treatment group by the cinnamaldehyde derivative of the invention were intraperitoneally injected with […] Salmonella LPS (Sigma, USA) (Am J Physiol Renal Physiol, 296: F1088-1099, 2009; Nephron, 84: 167-176, 2000; Nephron Exp Nephrol, 112: e81-91, 2009) twice a week, continuously for 7 weeks for disease induction. Starting two days before disease induction, the GN disease treatment group was intraperitoneally injected with the cinnamaldehyde derivative of the invention at a daily dose of 30 mg/ml for continuous 7 weeks, while the pathological control group was given placebo daily through intraperitoneal injection. Urine samples were collected in metabolic cages every week. Mice were sacrificed on 7th week after the disease induction. Blood, kidneys, spleen and liver were collected and stored properly for further analysis.
(§2) Reverse-transcription PCR was used to evaluate and semi-quantitate TLR4 and its following adaptin Myd88 mRNA expression. […]

glomeruli of GN mice = assay: Renal histopathology (H&E) in LPS induced mouse GN model; type: in vivo; settings: i.p. daily 30 mg/ml, 7 weeks, FIG. 2
Method: as §1
To evaluate the renal histological changes, 10% formalin was used to fix the tissues, and sections were prepared and stained with hematoxylin and eosin (H&E) and observed under microscope. Changes in the tissues were analyzed by semi-quantitation. Items evaluated include: (1) cell density changes in glomerulus; (2) glomerulus fibrosis; (3) cell necrosis in glomerulus; (4) formation of crescent of glomerulonephritis. According to the ratio of glomeruli having pathological changes, 0 to 4 points were given as scores. 25 glomeruli were measured for each group and the sum of the points represents the renal histological changes. Secondly, mesenchymal and renal tubular atrophy, erythrocyte and protein granule sedimentation in renal tubules and mesenchymal inflammation were also evaluated.

[1] = system: LPS induced mouse GN model; assay: Urine protein and serum BUN (renal function) in LPS induced mouse GN model; type: in vivo; settings: LPS induced GN C57BL/6 mice
Method: as §1
Serum blood urea nitrogen (BUN) and proteinuria were used to assess mice kidney function. Serum blood urea nitrogen (BUN) measurement of serum collected through the eye socket was done through a tester (Fuji DRI-CHEM 3000) with a test specimen (Fuju DRI-CHEM SLIDE). […]

NF-κB = assay: Immunohistochemistry of kidney, NF-κB expression; type: in vivo, mouse; settings: LPS induced GN mice; i.p. daily 30 mg/ml, 7 weeks; IHC; FIG. 4(A),(B)
Method: as §1
(§3) In addition, to carry out immunohistochemistry (IHC) analysis, tissue fixation, paraffin-embedding, sectioning, rehydration and antigen retrieval were done with routine procedures, and 3% H2O2 was used to remove endogenous peroxidase. […]

NLRP3 = assay: Real-time PCR of kidney tissue, NLRP3; type: in vivo, mouse; settings: LPS induced GN mice, i.p. daily 30 mg/ml, 7 weeks, FIG. 5(A)-(D)
Method: as §1
(§4) RNA was extracted from kidney tissues, reverse transcribed to cDNA and Real-Time PCR (Applied Biosystems) was carried out. Items determined include: IL-6, NLRP3, caspase-1, IL-1β and IL-18, where GAPDH gene expression levels were used to carry out the internal correction.

IL-1β [2] = assay: Real-time PCR of kidney tissue, IL-1β; type: in vivo, mouse; settings: LPS induced GN mice, i.p. daily 30 mg/ml, 7 weeks, FIG. 5(A)-(D)
Method: as §1, §4

IL-1β [3] = assay: Mature IL-1β in renal cortical protein (ELISA); type: in vivo, mouse; settings: LPS induced GN mice, i.p. daily 30 mg/ml, 7 weeks, FIG. 5(H)
Method: as §1
(§5) ELISA reader (Bio-Tek, USA) was used to detect OD 450 nm absorption and the values were converted to sample concentration according to the standard curve.

macrophage (F4/80) = assay: Immunohistochemistry of kidney, macrophage marker F4/80; type: in vivo, mouse; settings: LPS induced GN mice; i.p. daily 30 mg/ml, 7 weeks; IHC; vs GN disease group; FIG. 3(A),(D),(E)
Method: as §1, §3

spleen cells = assay: Flow cytometry of T cell and B cell activation in spleen cells; type: in vivo, mouse; settings: LPS induced GN mice, i.p. daily 30 mg/ml, 7 weeks
Method: as §1
Mice spleens were taken out, grinded, rinsed and centrifuged to obtain spleen cells. To carry out mice inflammation reaction analysis, 1×10^6 cells were taken and reacted with anti-mouse CD3-FITC antibody, anti-mouse […] antibody anti-mouse CD8-PE, anti-mouse CD19-FITC antibody and anti-mouse CD69-PE antibody (all purchased from BD Pharmingen, CA) respectively in the dark under room temperature for 30 minutes, and analyzed with flow cytometry (Beckton Dickinson, Calif.).

T cell (CD3) = assay: Immunohistochemistry of kidney, T cell (CD3) infiltration; type: in vivo, mouse; settings: LPS induced GN mice; i.p. daily 30 mg/ml, 7 weeks; IHC; FIG. 3(A),(B),(C)
Method: as §1, §3

NF-κB p65 = NF-κB p65 activity in kidney tissues (ELISA); type: in vivo, mouse; settings: LPS induced GN mice, i.p. daily 30 mg/ml, 7 weeks, FIG. 4(C)
Method: as §1, with “Blood, kidneys, spleen and liver were collected and stored properly for further analysis.” left out
Renal cortical tissues were taken and extracted for nuclear protein with nucleus extraction kit (Active Motif, Japan), and nuclear proteins were taken to detect NF-κB p65 activity after protein quantitation. […] Lastly, ELISA reader (Bio-Tek, USA) was used to detect OD 450 nm absorption and the values were converted to sample concentration according to the standard curve.

[4] = Drug safety by weekly weight change of mice; type: in vivo, mouse; settings: LPS induced GN mice, i.p. daily 30 mg/ml, 7 weeks; for weight change of mice: recorded each week, compared to normal control group, FIG. 7
Method: as §1
During the experiment processes, the drug safety of the cinnamaldehyde derivative was assessed through recording the weight change of mice each week.

IL-18 = assay: Real-time PCR of kidney tissue, IL-18; type: in vivo, mouse; settings: LPS induced GN mice, i.p. daily 30 mg/ml, 7 weeks, FIG. 5(A)-(D)
Method: as §1, §4

TLR4 = assay: Reverse-transcription PCR, TLR4 mRNA; type: in vivo, mouse; settings: LPS induced GN mice, i.p. daily 30 mg/ml, 7 weeks, semi-quantitated, FIG. 6
Method: as §1, §2

IL-6 = IL-6 protein in kidney tissue (ELISA); type: in vivo, mouse; settings: LPS induced GN mice, i.p. daily 30 mg/ml, 7 weeks, FIG. 4(D)
Method: as §1, §5

caspase-1 [5] = assay: Western blot of renal cortical proteins, caspase-1; type: in vivo, mouse; settings: LPS induced GN mice, i.p. daily 30 mg/ml, 7 weeks
Method: as §1
Renal cortical tissues were cut to pieces and placed in buffer, and grinding with sonication was used to lyse the cells. After centrifugation, the supernatant was preserved, and protein concentration was measured with protein concentration analyzing kit (BCA protein Assay Kit, PIERCE). […]

caspase-1 [6] = assay: Real-time PCR of kidney tissue, caspase-1; type: in vivo, mouse; settings: LPS induced GN mice, i.p. daily 30 mg/ml, 7 weeks, FIG. 5(A)-(D)
Method: as §1, §4

## O=CC=Cc1ccc(OC2OC(CO)C(O)C(O)C2O)cc1 (centres unmarked) [cinnamaldehyde derivative, 4-hydroxyphenylacrylaldehyde glycoside]
MyD88
  MyD88 mRNA expression level: reduced
Glomeruli of GN mice
  glomerular fibrosis: no fibrosis condition occurrence was observed
  glomerular proliferation: significantly ameliorated
  lymphocyte infiltration: reduced
[1]; i.p. daily 30 mg/ml for 7 weeks, vs pathological control group, FIG. 1(B)
  serum blood urea nitrogen (BUN): significantly lower
[1]; i.p. daily dose of 30 mg/ml for 7 weeks, vs disease group, *p<0.05, FIG. 1(A)
  urine protein content (proteinuria): reduce proteinuria
NF-κB
  NF-κB expression in kidney tissue: reduce its expression level
NLRP3
  NLRP3 gene expression level in kidney tissue: significantly reduced
IL-1β [2]
  IL-1β gene expression level in kidney tissue: significantly reduced
IL-1β [3]
  amount of mature IL-1β: significantly decreased
IL-1β [3]; listed as hydroxycinammaldehde glycoside derivate
  amount of mature IL-1β: significantly increased in GN disease group compared to hydroxycinammaldehde glycoside derivate treated GN group
Macrophage (F4/80)
  macrophage (F4/80) staining in kidney: significantly less
Spleen cells; ***p<0.005, FIG. 3(G)
  Helper T cells (CD4+) activation ratio in spleen cells: significantly ameliorated
Spleen cells; FIG. 3(F)
  T cell (CD3+) activation in spleen cells: showed the tendency of reduction
Spleen cells; FIG. 3(H)
  B cell (CD19+) activation in spleen cells: no significant difference
T cell (CD3)
  T lymphocyte (CD3) infiltration in glomeruli: significantly lowered
NF-κB p65
  NF-κB p65 content (activation) in renal cortical proteins: lower its activation level
[4]; judged from weight change
  side-effects in animals: did not cause obvious side-effects
[4]; listed as hydroxycinammaldehde glycoside derivative
  weight change of mice: does not result in weight loss
[4]; listed as hydroxycinnamaldehyde derivative
  weight change of mice: stable increase in their bodyweight
IL-18
  IL-18 gene expression level in kidney tissue: significantly reduced
TLR4
  TLR4 mRNA expression level: reduced
IL-6
  IL-6 protein expression level in kidney tissue: reduce IL-6 expression
caspase-1 [5]; FIG. 5(E)
  matured caspase-1 expression level: higher in the disease group than in the cinnamaldehyde derivative treatment group
caspase-1 [5]; FIG. 5(E)-(G)
  pro-caspase-1 expression level: reduced
caspase-1 [6]
  caspase-1 gene expression level in kidney tissue: significantly reduced
